# Measured values published in US12410185B2, “Compounds targeting mutant calreticulin” (MYELOPRO DIAGNOSTICS AND RESEARCH GmbH, priority 2018, dated 2025).
# Legend:
# [1] = tested on: UT-7-TPO mutant cell lines; experiment: 72 h dose response test, CellTiter-Glo cell viability assay; assay type: cell-based; conditions: UT-7-TPO cell lines, mutant vs wild-type
# Source text: Among 140.000 structures, a list of compounds with the highest binding energy and specificity towards calreticulin was generated. Relying on compounds that were either commercially available or available from the DTP Databases of the National Cancer Institute (NCI), a docking compound library including 41 compounds was assembled, […] CALR cell lines (FIGS. 5 and 6). […] Two hits were identified as preferentially inhibiting mutant CALR cell line growth. […] Therefore, hematoxylin and derivatives thereof were used for further testing.
# [2] = tested on: CALR KO Ba/F3-MPL cell lines; experiment: hematoxylin sensitivity of CALR knockout cell lines; assay type: cell-based, mouse; conditions: CALR KO vs CALR WT clones
# Method: In order to further confirm the selective cytotoxicity of hematoxylin in CALR mutant cells, two-color competition assays were performed in both Ba/F3 and UT-7-TPO cells to assess the long-term efficacy of the compound (FIG. 9). […] The differential killing effect of hematoxylin could also be reproduced in the UT-7-TPO cell line. […] This reading frame encounters a stop codon shortly after the mutation and causes a truncation at the CALR C-terminus (FIG. 12). […] Moreover, CALR KO Ba/F3-MPL cell lines were tested for hematoxylin sensitivity.
# wild-type calreticulin = biological target: T1, wild-type calreticulin (Mus musculus, UniProt P14211); experiment: Western blot analysis of Ba/F3-MPL cell lines; assay type: cell-based; conditions: 20 uM, 24 hours
# T1 construct: endogenous in cells; host or cells: Ba/F3-MPL CALR WT and CALR WT/del79 cell lines
# T1 sequence (P14211 18-416): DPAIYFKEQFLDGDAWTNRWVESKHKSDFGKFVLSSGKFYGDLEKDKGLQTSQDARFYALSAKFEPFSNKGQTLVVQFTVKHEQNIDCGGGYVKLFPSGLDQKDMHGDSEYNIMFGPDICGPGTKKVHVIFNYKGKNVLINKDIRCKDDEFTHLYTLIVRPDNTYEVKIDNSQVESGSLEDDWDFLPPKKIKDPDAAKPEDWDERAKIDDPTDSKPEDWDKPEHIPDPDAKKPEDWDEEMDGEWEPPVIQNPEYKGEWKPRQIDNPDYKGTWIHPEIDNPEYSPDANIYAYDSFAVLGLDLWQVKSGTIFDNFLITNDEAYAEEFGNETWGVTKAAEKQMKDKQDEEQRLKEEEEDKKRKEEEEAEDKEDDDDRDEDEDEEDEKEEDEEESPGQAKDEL
# Method: (§1) 2 million Ba/F3-MPL CALR WT or mutant cells were treated with hematoxylin or the equivalent volume of DMSO in a total volume of 15 ml of RPMI media in T75 flasks (Thermal Fisher Scientific). Cells were collected and washed with PBS before being lysed in whole cell lysis buffer containing 20 mM HEPES, 20% glycerol, 50 mM KCl, 400 mM NaCl, 1 mM EDTA, 1 mM DTT, 5 mM Na orthovanadate, 0.5% NP40, 0.1% Tween 20, supplemented with cOmplete™, Mini, EDTA-free Protease Inhibitor Cocktail (Sigma) and PhosSTOP™ (Sigma). Samples were rotated at 4° C. for 20 min prior to centrifugation at […] for 20 min. The soluble fraction of the sample was collected. Protein concentration was quantified by the Bio-Rad Protein Assay (Bio-Rad) according to the manufacturer's instructions and measured by a SpectraMax Microplate Reader (Molecular Devices). Equal amounts of protein were loaded for 8% or 10% SDS-polyacrylamide gel electrophoresis prior to transfer to Amersham™ Protran® nitrocellulose membranes at 35V, 4° C. overnight. Membranes were then blocked by 5% bovine serum albumin fraction V (Sigma) or milk. Mutant calreticulin was detected by a polyclonal rabbit antibody against the mutant specific C-terminal peptide (Myelopro). […]
# [3] = tested on: hematoxylin-resistant Ba/F3-MPL CALR mutant cell lines; experiment: dose response test in hematoxylin-resistant cell lines; assay type: cell-based, mouse; conditions: lines selected under 20 uM hematoxylin for 4 weeks
# Method: FIG. 21: Dose response of hematoxylin in Ba/F3-MPL resistant cell lines. Ba/F3-MPL CALR del79/WT and Ba/F3-MPL CALR del37/del37 were cultured with hematoxylin at a concentration of 20 uM for 4 weeks. CALR del79/WT resistant clone 1 and CALR del37/del37 resistant clone were cultured without cytokine. CALR del79/WT resistant clone 2 were cultured with 5% TPO.
# (§2) Ba/F3-MPL CALR del79/WT and CALR del37/del37 cell lines were cultured with 20 uM of hematoxylin with or without 5% TPO continuously for 4 weeks. The cells were passaged every 3 days and seeded at 0.5 million per well in 6-well plates with addition of fresh hematoxylin and cytokine.
# mutant calreticulin [4] = experiment: Western blot analysis of hematoxylin-resistant clones; assay type: cell-based, mouse; conditions: 24 h treatment
# Method: FIG. 22: Western blot analysis of hematoxylin resistant clones. All cells were treated for 24 h with hematoxylin before collection.
# as §2
# as §1, with “Equal amounts of protein were loaded for 8% or 10% SDS-polyacrylamide gel electrophoresis prior to transfer to Amersham™ Protran® nitrocellulose membranes at 35V, 4° C. overnight. Membranes were then blocked by 5% bovine serum albumin fraction V (Sigma) or milk.” left out
# mutant calreticulin [5] = biological target: T2, mutant calreticulin (Homo sapiens, UniProt P27797); experiment: Western blot analysis of CD34-positive cells from a CALR ins5 mutant patient; assay type: cell-based; parameters: dose or concentration left out as unconfirmed; conditions: hematoxylin, 8 hours
# T2 construct: CD34-positive cells isolated from a healthy control and a CALR ins5 mutant patient; endogenous in cells; host or cells: primary CD34-positive cells from a CALR ins5 mutant patient
# T2 sequence (P27797 with tags, fused parts or gaps, stated change not applied): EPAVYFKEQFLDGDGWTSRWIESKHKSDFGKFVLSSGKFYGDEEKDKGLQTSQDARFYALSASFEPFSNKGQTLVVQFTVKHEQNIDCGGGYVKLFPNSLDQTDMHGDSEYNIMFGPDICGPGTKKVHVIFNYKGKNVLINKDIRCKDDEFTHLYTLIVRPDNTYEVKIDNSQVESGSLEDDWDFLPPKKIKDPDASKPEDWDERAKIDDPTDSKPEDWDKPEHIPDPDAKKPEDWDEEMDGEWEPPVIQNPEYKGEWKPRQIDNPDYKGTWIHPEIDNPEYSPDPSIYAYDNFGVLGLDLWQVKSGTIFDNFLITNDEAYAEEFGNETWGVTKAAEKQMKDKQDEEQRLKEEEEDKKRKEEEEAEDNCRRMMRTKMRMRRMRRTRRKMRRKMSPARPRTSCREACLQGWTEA
# Method: as §1
smiles,measurement,setting,value
"Oc1cc2c(cc1O)[C@@H]1c3ccc(O)c(O)c3OC[C@]1(O)C2 [hematoxylin, Hematoxylin]",hypersensitivity of mutant cell lines to the compound,[1],hypersensitivity of mutant cell lines to the compound could be reproduced
same,hypersensitivity towards the treatment,[2],did not show hypersensitivity
same,wild-type calreticulin protein level,wild-type calreticulin; CALR WT cell line,not affected
same,wild-type calreticulin protein level,wild-type calreticulin; CALR heterozygous mutant cell line,up-regulation
same,viability of resistant cell lines in response to the treatment,[3],Increased viability
same,compound-induced down-regulation of mutant calreticulin in resistant cell lines,mutant calreticulin [4],resistance towards the compound-induced down-regulation
same,protein abundance of mutant calreticulin,mutant calreticulin [5],drastically reduced
